Data published in patent US3956287A, “7-[(2-Oxo-1-pyridinyl)acylamino]cephalosporin derivatives” (Richardson-Merrell Inc., priority 1973, dated 1976).
≈ marks a conversion by molar mass, not a printed value. Where a name gives a salt, the structure may show the parent alone. Read-outs that look alike come from different tables or passages of the source.

Columns and labels:
[1] = tested on: (Penicillinase Producing) Staphylococcus aureus; test: in vitro antibacterial activity, minimal inhibiting concentration, penicillinase producing Staphylococcus aureus; format: cell-based; settings: read-out: Minimal inhibiting concentration, (Penicillinase Producing) Staphylococcus aureus
Experimental: (§1) Specific nutrient agar plates are completely innoculated with the various test organisms. Filter paper discs are placed on the surface of the agar and wetted with 0.1 ml of a solution containing 10, 100 and 1,000 micrograms of the test compound. Zones of inhibition of microbial growth are used to indicate the antibacterial activity of the test compound against the various test organisms employed.
(§2) The following table summarizes the in vitro activity in terms of a concentration required to inhibit the growth of various typical bacteria for the following representative compounds: 6-[2-(2-oxo-1-pyridinyl)acetylamino]penicillanic acid, sodium salt (1), 7-[2-(2-oxo-1-pyridinyl)acetylamino]desacetoxycephalosporanic acid, sodium salt (2), 6-[2-(6-methyl-2-oxo-1-pyridinyl)acetylamino]pencillanic acid (3), 6-[2-(2-oxo-1-pyridinyl)-2-methylacetylamino]penicillanic acid (4), 6-[2-(5-chloro-2-oxo-1-pyridinyl)acetylamino]penicillanic acid (5), 6-[2-(5-nitro-2-oxo-1-pyridinyl)acetylamino]penicillanic acid (6), 6-[ 2-(5-amino-2-oxo-1-pyridinyl)acetylamino]penicillanic acid (7), 6-[2-(3-methoxy-2-oxo-1-pyridinyl)acetylamino]penicillanic acid (8), and 7-[2-(2-oxo-1-pyridinyl)acetylamino]cephalosporanic acid (9).

[2] = tested on: Salmonella schottmuelleri; test: in vitro antibacterial activity, minimal inhibiting concentration, Salmonella schottmuelleri; format: cell-based; settings: read-out: Minimal inhibiting concentration, Salmonella schottmuelleri
Experimental: as §1, §2

Acid Resistance = format: physicochemical
Staphylococcus aureus = test: in vitro antibacterial activity, minimal inhibiting concentration, Staphylococcus aureus; format: cell-based; settings: read-out: Minimal inhibiting concentration, Staphylococcus aureus
Experimental: as §1, §2

Streptococcus pyogenes = test: in vitro antibacterial activity, minimal inhibiting concentration, Streptococcus pyogenes; format: cell-based; settings: read-out: Minimal inhibiting concentration, Streptococcus pyogenes
Experimental: as §1, §2

[3] = penicillinase producing strain, in vitro, filter paper discs on nutrient agar, 0.1 ml of solution containing 10, 100 and 1,000 micrograms
[4] = in vitro, filter paper discs on nutrient agar, 0.1 ml of solution containing 10, 100 and 1,000 micrograms

SMILES | MIC [1, 3] [µg/mL] | MIC [2, 4] [µg/mL] | Acid Resistance (Acid Resistance) | MIC (Staphylococcus aureus; [4]) [µg/mL] | MIC (Streptococcus pyogenes; [4]) [µg/mL] | MIC [1] [µg/mL] | MIC [2] [µg/mL] | MIC (Staphylococcus aureus) [µg/mL] | MIC (Streptococcus pyogenes) [µg/mL]
CC(=O)OCC1=C(C(=O)O)N2C(=O)C(NC(=O)Cn3ccccc3=O)C2SC1 (centres unmarked) [Compound 9, 7-[2-(2-oxo-1-pyridinyl)acetylamino]cephalosporanic acid] | 1000 (≈ 2450 µM) | 100 (≈ 245 µM) | Yes | 10 (≈ 24.5 µM) | 10 (≈ 24.5 µM) | – | – | – | –
CC1(C)S[C@@H]2C(NC(=O)Cn3cc([N+](=O)[O-])ccc3=O)C(=O)N2[C@H]1C(=O)O (some centres unmarked) [Compound 6, 6-[2-(5-nitro-2-oxo-1-pyridinyl)acetylamino]penicillanic acid] | > 1000 | 1000 (≈ 2520 µM) | Yes | 10 (≈ 25.2 µM) | > 1000 | – | – | – | –
CC1(C)S[C@@H]2C(NC(=O)Cn3cc(Cl)ccc3=O)C(=O)N2[C@H]1C(=O)O (some centres unmarked) [Compound 5, 6-[2-(5-chloro-2-oxo-1-pyridinyl)acetylamino]penicillanic acid] | > 1000 | 1000 (≈ 2590 µM) | Yes | 10 (≈ 25.9 µM) | 1000 (≈ 2590 µM) | – | – | – | –
CC1(C)S[C@@H]2C(NC(=O)Cn3ccccc3=O)C(=O)N2[C@H]1C(=O)[O-].[Na+] (some centres unmarked) [Compound 1, 6-[2-(2-oxo-1-pyridinyl)acetylamino]penicillanic acid, sodium salt] | – | – | Yes | – | – | 1000 | 1000 | 10 | 10
CC1=C(C(=O)O)N2C(=O)C(NC(=O)Cn3ccccc3=O)C2SC1 (centres unmarked) [Compound 2, 7-[2-(2-oxo-1-pyridinyl)acetylamino]desacetoxycephalosporanic acid, sodium salt] | > 1000 | > 1000 | Yes | 1000 | 1000 | – | – | – | –

The next lines start with results.

MIC [1, 3] [µg/mL] | MIC [2, 4] [µg/mL] | Acid Resistance (Acid Resistance) | MIC (Staphylococcus aureus; [4]) [µg/mL] | MIC (Streptococcus pyogenes; [4]) [µg/mL] | SMILES | MIC [1] [µg/mL] | MIC [2] [µg/mL] | MIC (Staphylococcus aureus) [µg/mL] | MIC (Streptococcus pyogenes) [µg/mL]
1000 (≈ 2620 µM) | 1000 (≈ 2620 µM) | Yes | 10 (≈ 26.2 µM) | – | COc1cccn(CC(=O)NC2C(=O)N3[C@@H]2SC(C)(C)[C@@H]3C(=O)O)c1=O (some centres unmarked) [Compound 8, 6-[2-(3-methoxy-2-oxo-1-pyridinyl)acetylamino]penicillanic acid] | – | – | – | –
1000 (≈ 2740 µM) | 1000 (≈ 2740 µM) | Yes | 10 (≈ 27.4 µM) | 1000 (≈ 2740 µM) | Cc1cccc(=O)n1CC(=O)NC1C(=O)N2C1SC(C)(C)C2C(=O)O (centres unmarked) [Compound 3, 6-[2-(6-methyl-2-oxo-1-pyridinyl)acetylamino]pencillanic acid] | – | – | – | –
1000 (≈ 2740 µM) | 1000 (≈ 2740 µM) | Weak | 1000 (≈ 2740 µM) | 1000 (≈ 2740 µM) | CC(C(=O)NC1C(=O)N2[C@@H]1SC(C)(C)[C@@H]2C(=O)O)n1ccccc1=O (some centres unmarked) [Compound 4, 6-[2-(2-oxo-1-pyridinyl)-2-methylacetylamino]penicillanic acid] | – | – | – | –
> 1000 | 1000 (≈ 2730 µM) | Yes | 10 (≈ 27.3 µM) | > 1000 | CC1(C)S[C@@H]2C(NC(=O)Cn3cc(N)ccc3=O)C(=O)N2[C@H]1C(=O)O (some centres unmarked) [Compound 7, 6-[2-(5-amino-2-oxo-1-pyridinyl)acetylamino]penicillanic acid] | – | – | – | –
